Target: T1, Human FAAH (Homo sapiens, UniProt O00519)
T1 construct: made in house
T1 sequence (O00519 1-579): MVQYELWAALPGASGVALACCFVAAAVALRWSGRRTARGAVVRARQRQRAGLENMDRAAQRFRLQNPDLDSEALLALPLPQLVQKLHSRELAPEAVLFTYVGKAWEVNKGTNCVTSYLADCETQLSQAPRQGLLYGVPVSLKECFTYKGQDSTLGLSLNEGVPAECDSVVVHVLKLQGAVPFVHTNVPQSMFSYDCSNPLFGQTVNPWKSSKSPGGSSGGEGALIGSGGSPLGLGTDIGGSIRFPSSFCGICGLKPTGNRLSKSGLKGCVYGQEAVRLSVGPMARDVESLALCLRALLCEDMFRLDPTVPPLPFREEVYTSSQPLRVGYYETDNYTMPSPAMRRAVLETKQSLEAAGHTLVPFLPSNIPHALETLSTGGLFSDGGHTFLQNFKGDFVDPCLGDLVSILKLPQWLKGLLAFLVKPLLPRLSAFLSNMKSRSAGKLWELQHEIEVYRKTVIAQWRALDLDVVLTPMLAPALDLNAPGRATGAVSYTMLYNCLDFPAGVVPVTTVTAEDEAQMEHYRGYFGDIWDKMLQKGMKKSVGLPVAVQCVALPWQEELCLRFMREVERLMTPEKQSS
Assay: FAAH assay (glutamate dehydrogenase-coupled, oleamide substrate, absorbance at 340 nm)
Assay type: biochemical
Details: irreversible inhibition, 1-4 nM FAAH, pH 7.4, 30° C., 90 min; for kinact/KI: read-out: hFAAH kinact/Ki
Experimental: The FAAH assay was carried out in 384-well clear polystyrene plates in a total volume of 50 μl per well. All percents are by volume. To each well, was placed the reaction mixture (40 μl) containing 1-4 nM FAAH, 50 mM NaPi, pH 7.4, 3 mM α-ketoglutarate, 0.15 mM NADH, 7.5 U/ml glutamate dehydrogenase, 2 mM ADP, 1 mM EDTA, and 0.1% Triton X-100 (The concentration shown for each component is the final concentration in the assay). […] This was immediately followed by the addition of 5 μl oleamide (500 μM) dissolved in 75% EtOH/25% DMSO and the reaction mixture was mixed for 1.5 min. The final concentrations of DMSO and EtOH in the assay were each 7.5%.
Initial velocity data (V) were obtained from the slopes of the initial progressive curves. They were plotted as a function of substrate concentration and fit to the Michaelis-Menten equation (1) using Prism (GraphPad Software, Inc., San Diego, Calif.) software to obtain Km and Vmax values.
To obtain potencies of irreversible inhibitors, progressive curves consistent with first order inhibition kinetics (two-step irreversible inhibition mechanism) were fit to equation (2) by nonlinear least squares regressions to determine kobs values at each inhibitor concentration, where [P]t is the absorbance at time t, V0 is a constant related to the steady state rate of the uninhibited reaction, and kobs is the first order rate constant for enzyme inactivation. The inhibitor dissociation constant (Ki) and the first order rate
[formula] constant of enzyme inactivation at infinite inhibitor concentration (kinact) were then obtained by fitting the kobs vs. [I] curves to equation (3).

Compound	kinact/KI [M⁻¹ s⁻¹]	hFAAH kinact/Ki [M⁻¹ s⁻¹]
O=C(Nc1ccc(Br)nc1)N1CCC(=Cc2cccc(Oc3ccc(C(F)(F)F)cn3)c2)CC1 [Example 28, 4-(3-(5-(trifluoromethyl)pyridin-2-yloxy)benzylidene)-N-(6-bromopyridin-3-yl)piperidine-1-carboxamide]	6190	
O=C(Nc1ccccc1F)N1CCC(=Cc2cccc(Oc3ccc(C(F)(F)F)cn3)c2)CC1 [Example 29, 4-(3-(5-(trifluoromethyl)pyridin-2-yloxy)benzylidene)-N-(2-fluorophenyl)piperidine-1-carboxamide]	3370	
N#Cc1ccc(Oc2cccc(C=C3CCN(C(=O)Nc4cccnc4)CC3)c2)nc1 [Example 30, 4-(3-(5-cyanopyridin-2-yloxy)benzylidene)-N-(pyridin-3-yl)piperidine-1-carboxamide]	3540	
O=C(Nc1cccnc1)N1CCC(=Cc2cccc(Oc3ccc(Br)cn3)c2)CC1 [Example 33, 4-{3-[(5-bromopyridin-2-yl)oxy]benzylidene}-N-pyridin-3-ylpiperidine-1-carboxamide]	26300	
O=C(Nc1cccnn1)N1CCC(=Cc2cccc(Oc3ccc(Br)cn3)c2)CC1 [Example 34, 4-(3-(5-bromopyridin-2-yloxy)benzylidene)-N-(pyridazin-3-yl)piperidine-1-carboxamide]	50900	
Cc1noc(NC(=O)N2CCC(=Cc3cccc(Oc4ccc(Br)cn4)c3)CC2)c1C [Example 35, 4-(3-(5-bromopyridin-2-yloxy)benzylidene)-N-(3,4-dimethylisoxazol-5-yl)piperidine-1-carboxamide]	3670	
O=C(Nc1cccnc1)N1CCC(=Cc2cccc(Oc3ncc(Br)cn3)c2)CC1 [Example 36, 4-(3-(5-bromopyrimidin-2-yloxy)benzylidene)-N-(pyridin-3-yl)piperidine-1-carboxamide]	5070	
O=C(Nc1cccnn1)N1CCC(=Cc2cccc(Oc3ncc(Br)cn3)c2)CC1 [Example 37, 4-(3-(5-bromopyrimidin-2-yloxy)benzylidene)-N-(pyridazin-3-yl)piperidine-1-carboxamide]	15100	
O=C(Nc1cccnc1)N1CCC(=Cc2cccc(Oc3ccc(C4CC4)cn3)c2)CC1 [Example 38, 4-(3-(5-cyclopropylpyridin-2-yloxy)benzylidene)-N-(pyridin-3-yl)piperidine-1-carboxamide]	9180	
O=C(Nc1cccnn1)N1CCC(=Cc2cccc(Oc3ccc(C4CC4)cn3)c2)CC1 [Example 39, 4-(3-(5-cyclopropylpyridin-2-yloxy)benzylidene)-N-(pyridazin-3-yl)piperidine-1-carboxamide]	18200	
Cc1cccc(Oc2cccc(C=C3CCN(C(=O)Nc4cccnc4)CC3)c2)n1 [Example 40, 4-(3-(6-methylpyridin-2-yloxy)benzylidene)-N-(pyridin-3-yl)piperidine-1-carboxamide]	554	
Cc1cccc(Oc2cccc(C=C3CCN(C(=O)Nc4cccnn4)CC3)c2)n1 [Example 41, 4-(3-(6-methylpyridin-2-yloxy)benzylidene)-N-(pyridazin-3-yl)piperidine-1-carboxamide]	687	
Cc1cccnc1Oc1cccc(C=C2CCN(C(=O)Nc3cccnc3)CC2)c1 [Example 42, 4-(3-(3-methylpyridin-2-yloxy)benzylidene)-N-(pyridin-3-yl)piperidine-1-carboxamide]	834	
Cc1cccnc1Oc1cccc(C=C2CCN(C(=O)Nc3cccnn3)CC2)c1 [Example 43, 4-(3-(3-methylpyridin-2-yloxy)benzylidene)-N-(pyridazin-3-yl)piperidine-1-carboxamide]	1410	
Cc1ccc(Oc2cccc(C=C3CCN(C(=O)Nc4cccnn4)CC3)c2)nc1 [Example 45, 4-(3-(5-methylpyridin-2-yloxy)benzylidene)-N-(pyridazin-3-yl)piperidine-1-carboxamide]	12800	
Cc1ccc(Oc2cccc(C=C3CCN(C(=O)Nc4onc(C)c4C)CC3)c2)nc1 [Example 46, 4-(3-(5-methylpyridin-2-yloxy)benzylidene)-N-(3,4-dimethylisoxazol-5-yl)piperidine-1-carboxamide]	3700	

Compound	kinact/KI [M⁻¹ s⁻¹]	hFAAH kinact/Ki [M⁻¹ s⁻¹]
CCOc1ccc(Oc2cccc(C=C3CCN(C(=O)Nc4cccnc4)CC3)c2)nc1 [Example 47, 4-(3-(5-ethoxypyridin-2-yloxy)benzylidene)-N-(pyridin-3-yl)piperidine-1-carboxamide]	4490	
CCOc1ccc(Oc2cccc(C=C3CCN(C(=O)Nc4cccnn4)CC3)c2)nc1 [Example 48, 4-(3-(5-ethoxypyridin-2-yloxy)benzylidene)-N-(pyridazin-3-yl)piperidine-1-carboxamide]	5830	
O=C(Nc1cccnc1)N1CCC(=Cc2cccc(Oc3ccc(OCC(F)(F)F)cn3)c2)CC1 [Example 49, 4-(3-(5-(2,2,2-trifluoroethoxy)pyridin-2-yloxy)benzylidene)-N-(pyridin-3-yl)piperidine-1-carboxamide]	6560	
O=C(Nc1cccnn1)N1CCC(=Cc2cccc(Oc3ccc(OCC(F)(F)F)cn3)c2)CC1 [Example 50, 4-(3-(5-(2,2,2-trifluoroethoxy)pyridin-2-yloxy)benzylidene)-N-(pyridazin-3-yl)piperidine-1-carboxamide]	5670	
CC(C)Oc1ccc(Oc2cccc(C=C3CCN(C(=O)Nc4cccnc4)CC3)c2)nc1 [Example 51, 4-(3-(5-isopropoxypyridin-2-yloxy)benzylidene)-N-(pyridin-3-yl)piperidine-1-carboxamide]	4330	
CC(C)Oc1ccc(Oc2cccc(C=C3CCN(C(=O)Nc4cccnn4)CC3)c2)nc1 [Example 52, 4-(3-(5-isopropoxypyridin-2-yloxy)benzylidene)-N-(pyridazin-3-yl)piperidine-1-carboxamide]	4090	
O=C(Nc1cccnc1)N1CCC(=Cc2cccc(Oc3ccc(C(F)(F)F)cc3)c2)CC1 [Example 53]		4520
O=C(Nc1cccnn1)N1CCC(=Cc2cccc(Oc3ccc(C(F)(F)F)cc3)c2)CC1 [Example 54, 4-(3-(4-(trifluoromethyl)phenoxy)benzylidene)-N-(pyridazin-3-yl)piperidine-1-carboxamide]	12000	
Cc1noc(NC(=O)N2CCC(=Cc3cccc(Oc4ccc(C(F)(F)F)cc4)c3)CC2)c1C [Example 55, 4-(3-(4-(trifluoromethyl)phenoxy)benzylidene)-N-(3,4-dimethylisoxazol-5-yl)piperidine-1-carboxamide]	1610	
Cc1ccc(NC(=O)N2CCC(=Cc3cccc(Oc4ccc(C(F)(F)F)cc4)c3)CC2)cn1 [Example 56, 4-(3-(4-(trifluoromethyl)phenoxy)benzylidene)-N-(6-methylpyridin-3-yl)piperidine-1-carboxamide]	3580	
O=C(Nc1cccnn1)N1CCC(=Cc2cccc(Oc3ccc(C(F)(F)F)nc3)c2)CC1 [Example 57, 4-(3-(6-(trifluoromethyl)pyridin-3-yloxy)benzylidene)-N-(pyridazin-3-yl)piperidine-1-carboxamide]	16800	
CCOc1cc(C=C2CCN(C(=O)Nc3cccnc3)CC2)cc(Oc2ccc(C(F)(F)F)cn2)c1 [Example 58, 4-(3-ethoxy-5-(5-(trifluoromethyl)pyridin-2-yloxy)benzylidene)-N-(pyridin-3-yl)piperidine-1-carboxamide]	322	
O=C(Nc1cccnc1)N1CCC(=Cc2ccc(Cl)c(Oc3ccc(C(F)(F)F)cn3)c2)CC1 [Example 59, 4-(4-chloro-3-(5-(trifluoromethyl)pyridin-2-yloxy)benzylidene)-N-(pyridin-3-yl)piperidine 1-carboxamide]	260	
Cc1ccc(C=C2CCN(C(=O)Nc3cccnc3)CC2)cc1Oc1ccc(C(F)(F)F)cn1 [Example 60, 4-(4-methyl-3-(5-(trifluoromethyl)pyridin-2-yloxy)benzylidene)-N-(pyridin-3-yl)piperidine-1-carboxamide]	1580	
Cc1cc(C=C2CCN(C(=O)Nc3cccnc3)CC2)cc(Oc2ccc(C(F)(F)F)cn2)c1 [Example 61, 4-(3-methyl-5-(5-(trifluoromethyl)pyridin-2-yloxy)benzylidene)-N-(pyridin-3-yl)piperidine-1-carboxamide]	2130	
